Reference: US9073863B2, “Cyanoquinoline compounds having activity in correcting mutant-CFTR processing and increasing ion transport and uses thereof” (The Regents of the University of California, priority 2011, dated 2015)

Key:
ΔF508-CFTR [1] = target: T1, ΔF508-CFTR (Homo sapiens, UniProt P13569, DEL508-508); assay: Corrector assay, YFP fluorescence plate reader iodide influx in ΔF508-CFTR expressing FRT cells; format: cell-based; conditions: for Corrector Vmax / EC50 / Corrector EC50: 18-24 h with compound at 37° C., forskolin 20 μM + genistein 50 μM; for corrector and potentiator activities, in words: concentration-dependence in corrector and potentiator I− influx assays (FIG. 2, FIG. 7); for corrector activity, comparison in words: propylene tether, methoxy position on arylamide
T1 construct: expressed in transfected cells; host or cells: Fischer rat thyroid (FRT) epithelial cells, stably transfected
Experimental: (§1) Screening procedures. Screening of compounds for activity was carried out using a Beckman Coulter platform equipped with FLUOstar fluorescence plate readers (Optima; BMG Labtech) with dual syringe pumps and 500±10 nm excitation and 535±15 nm emission filters (Chroma Corp.). For the corrector assay, FRT cells were grown at 37° C./5% CO2 for 18-24 h and then incubated for 18-24 h with 100 μL of medium containing test compounds (25 μM final concentration). At the time of the assay, cells were washed with PBS and then incubated for 10 min with PBS containing forskolin (20 μM) and genistein (50 μM). For the potentiator assay, FRT cells were grown at 37° C./5% CO2 for 18-24 h and then for 18-24 h at 27° C. At the time of the assay, cells were washed with PBS and then incubated for 10 min with PBS (50 μL) containing forskolin (20 μM) and test compound (0-25 μM final concentration). For both the corrector and potentiator assays, each well was assayed individually for I^− influx by recording fluorescence continuously (200 ms per point) for 2 s (baseline) and then for 12 s after rapid addition of 165 μL PBS in which 137 mM Cl^− was replaced by I^−. Initial I^− influx rate was computed by fitting the final 11.5 seconds of the data to an exponential for extrapolation of initial slope, which was normalized for background-subtracted initial fluorescence. All compound plates contained negative controls and positive controls (10 μM Corr-4a for corrector assay; 50 μM genistein for potentiator assay).
(§2) Screening of about 110,000 small molecules was done to identify new ΔF508-CFTR corrector scaffolds having high correction efficiency and/or having independent potentiator activity. […] FRT cells co-expressing human ΔF508-CFTR and a halide-sensing YFP were incubated with test compounds at 37° C. (corrector assay) or 27° C. (potentiator assay). ΔF508-CFTR function was assayed in a plate reader from YFP fluorescence quenching in response to iodide addition in the presence of forskolin (20 μM) plus genistein (50 μM) for corrector assay, or forskolin (20 μM) alone for potentiator assay. As shown in FIG. 1A (left), primary screening for corrector activity was done using a cell-based fluorescence assay of iodide influx in which FRT cells expressing ΔF508-CFTR and an iodide-sensitive YFP were incubated with test compounds at 10 μM for 18-24 h prior to assay. Iodide influx was measured by addition of extracellular iodide in the presence of a potentiator (50 μM genistein) and cAMP agonist (20 μM forskolin). Compound efficacy and potency (from concentration-dependence studies) in the corrector assay were compared to reference bithiazole Corr-4a (10 μM) and to low-temperature rescued cells. Active compounds were counter-screened for potentiator activity (FIG. 1A, right) in which iodide influx was measured in the ΔF508-CFTR expressing FRT cells after low-temperature rescue and in the presence of 20 μM forskolin.
(§3) Screening procedures. Plate reader activity assay was carried out using a Beckman Coulter platform containing a robotic arm, CO2 incubator containing microplate carousel, plate-washer, liquid handling work station, bar code reader, de-lidding station, plate sealer, and FLUOstar fluorescence plate readers (Optima; BMG LABTECH Gmbh), equipped with dual syringe pumps and 500±10 nm excitation and 535±15 nm emission filters (Chroma Corp.). For the corrector assay, ΔF508-CFTR-expressing FRT cells were grown at 37° C. (90% humidity; 5% CO2) for 18-24 h and then incubated for 18-24 h with 100 μL of medium containing test compounds (0-25 μM final concentration). At the time of the assay, cells were washed with PBS and then incubated for 10 min with PBS containing forskolin (20 μM) and genistein (50 μM). For the potentiator assay, FRT cells were grown at 37° C. (90% humidity; 5% CO2) for 18-24 h and then for 18-24 h at 27° C. […]

ΔF508-CFTR [2] = target: T1, ΔF508-CFTR; assay: Potentiator assay, YFP fluorescence plate reader iodide influx in low-temperature rescued ΔF508-CFTR expressing FRT cells; format: cell-based; conditions: for EC50 / Potentiator Vmax / Potentiator EC50: forskolin 20 μM + test compound; for potentiator activity, in words: piperazine ring in place of diamino ethylene tether
Experimental: as §1, §2, §3

[3] = Table VIII, FRT cells, I− influx
[4] = Table VIII, FRT cells 18-24 h at 27° C., I− influx
[5] = Table IX, additional experiments
[6] = Table IX, additional experiments, 18-24 h at 27° C.

T1 sequence (P13569 with tags, fused parts or gaps DEL508-508): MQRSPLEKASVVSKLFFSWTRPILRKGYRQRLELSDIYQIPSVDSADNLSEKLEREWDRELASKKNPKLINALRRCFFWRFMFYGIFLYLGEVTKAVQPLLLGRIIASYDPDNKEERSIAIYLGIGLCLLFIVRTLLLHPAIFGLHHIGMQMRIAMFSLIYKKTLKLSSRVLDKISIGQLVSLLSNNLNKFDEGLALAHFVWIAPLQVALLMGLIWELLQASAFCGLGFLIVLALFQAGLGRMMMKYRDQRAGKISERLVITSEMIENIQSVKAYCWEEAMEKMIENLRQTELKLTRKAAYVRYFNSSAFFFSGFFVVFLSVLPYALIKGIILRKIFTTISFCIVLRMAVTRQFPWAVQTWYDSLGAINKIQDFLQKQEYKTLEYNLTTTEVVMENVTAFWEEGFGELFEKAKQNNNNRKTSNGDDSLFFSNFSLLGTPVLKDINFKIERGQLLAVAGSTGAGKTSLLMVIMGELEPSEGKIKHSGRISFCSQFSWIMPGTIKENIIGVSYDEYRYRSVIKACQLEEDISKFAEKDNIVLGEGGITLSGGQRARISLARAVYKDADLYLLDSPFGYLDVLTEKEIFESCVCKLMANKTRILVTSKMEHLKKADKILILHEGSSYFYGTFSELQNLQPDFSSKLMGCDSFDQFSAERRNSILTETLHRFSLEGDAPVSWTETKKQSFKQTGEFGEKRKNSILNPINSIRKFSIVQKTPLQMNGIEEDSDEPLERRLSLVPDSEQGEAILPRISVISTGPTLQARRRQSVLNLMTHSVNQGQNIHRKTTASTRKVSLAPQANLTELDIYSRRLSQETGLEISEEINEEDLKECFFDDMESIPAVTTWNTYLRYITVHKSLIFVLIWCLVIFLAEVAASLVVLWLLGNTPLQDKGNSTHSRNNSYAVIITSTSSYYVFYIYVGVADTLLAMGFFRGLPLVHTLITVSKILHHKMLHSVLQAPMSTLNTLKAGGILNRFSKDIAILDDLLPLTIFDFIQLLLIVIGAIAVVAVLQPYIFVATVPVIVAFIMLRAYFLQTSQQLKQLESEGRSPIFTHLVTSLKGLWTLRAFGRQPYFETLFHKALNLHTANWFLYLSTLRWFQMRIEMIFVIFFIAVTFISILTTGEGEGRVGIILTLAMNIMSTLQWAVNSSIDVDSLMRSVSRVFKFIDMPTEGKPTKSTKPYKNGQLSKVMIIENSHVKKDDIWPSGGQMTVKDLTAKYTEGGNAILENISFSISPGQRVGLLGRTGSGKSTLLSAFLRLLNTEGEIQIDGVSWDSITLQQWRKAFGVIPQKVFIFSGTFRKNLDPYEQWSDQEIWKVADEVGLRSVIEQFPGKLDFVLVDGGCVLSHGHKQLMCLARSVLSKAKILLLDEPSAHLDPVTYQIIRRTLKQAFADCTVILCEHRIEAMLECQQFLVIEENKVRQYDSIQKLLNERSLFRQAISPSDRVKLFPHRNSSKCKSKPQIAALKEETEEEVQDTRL

| SMILES | Corrector Vmax (ΔF508-CFTR [1]; [3]) | EC50 (ΔF508-CFTR [2]; [4]) | Potentiator Vmax (ΔF508-CFTR [2]; [4]) | corrector and potentiator activities, in words (ΔF508-CFTR [1]) | further results |
| --- | --- | --- | --- | --- | --- |
| COc1ccc2nc(N3CCN(C(=O)c4ccccc4F)CC3)c(C#N)cc2c1 | 140 µM/s | 11 µM | 195 µM/s |  | EC50 (ΔF508-CFTR [1]; [3]): 4.2 µM |
| COc1ccc2nc(N3CCN(C(=O)c4ccccc4Cl)CC3)c(C#N)cc2c1 | inactive | 13 µM | 261 µM/s |  | Corrector EC50 (ΔF508-CFTR [1]; [3]): inactive |
| COc1ccc2nc(N3CCN(C(=O)c4ccccc4Br)CC3)c(C#N)cc2c1 | inactive | 5 µM | 235 µM/s |  | Corrector EC50 (ΔF508-CFTR [1]; [3]): inactive |
| Cc1ccc2cc(C#N)c(N3CCCN(C(=O)c4cccs4)CC3)nc2c1 | inactive | 13 µM | 261 µM/s |  | Corrector EC50 (ΔF508-CFTR [1]; [3]): inactive |
| Cc1cc(C)c2cc(C#N)c(N3CCN(C(=O)c4ccncc4)CC3)nc2c1 |  |  |  |  | Corrector EC50 (ΔF508-CFTR [1]; [5]): inactive; Corrector Vmax (ΔF508-CFTR [1]; [5]): inactive; Potentiator EC50 (ΔF508-CFTR [2]; [6]): inactive; Potentiator Vmax (ΔF508-CFTR [2]; [6]): inactive |
| COc1ccccc1C(=O)NCCCNc1nc2cc(C)cc(C)c2cc1C#N |  |  |  |  | Corrector Vmax (ΔF508-CFTR [1]; [5]): inactive; EC50 (ΔF508-CFTR [2]; [6]): 27.6 ± 2 µM; Potentiator Vmax (ΔF508-CFTR [2]; [6]): 254 µM/s |
| Cc1cc(C)c2cc(C#N)c(NCCNC(=O)c3ccccc3)nc2c1 |  |  |  |  | Corrector Vmax (ΔF508-CFTR [1]; [5]): inactive; EC50 (ΔF508-CFTR [2]; [6]): 10 ± 2 µM; Potentiator Vmax (ΔF508-CFTR [2]; [6]): 210 µM/s |
| COc1cccc(OC)c1C(=O)NCCNc1nc2cc(C)cc(C)c2cc1C#N |  |  |  |  | Corrector Vmax (ΔF508-CFTR [1]; [5]): 111 µM/s; EC50 (ΔF508-CFTR [1]; [5]): 3.7 ± 0.6 µM; EC50 (ΔF508-CFTR [2]; [6]): 11.5 ± 1 µM; Potentiator Vmax (ΔF508-CFTR [2]; [6]): 119 µM/s |
| COc1ccc(C(=O)NCCNc2nc3cc(C)cc(C)c3cc2C#N)c(OC)c1 |  |  |  |  | Corrector Vmax (ΔF508-CFTR [1]; [5]): 108 µM/s; EC50 (ΔF508-CFTR [1]; [5]): 4.2 ± 0.4 µM; EC50 (ΔF508-CFTR [2]; [6]): 55 ± 3.5 µM; Potentiator Vmax (ΔF508-CFTR [2]; [6]): 426 µM/s |
| Cc1cc(C)c2cc(C#N)c(NCCNC(=O)c3cnccn3)nc2c1 |  |  |  |  | Corrector Vmax (ΔF508-CFTR [1]; [5]): 174 µM/s; EC50 (ΔF508-CFTR [1]; [5]): 6.7 ± 1 µM; Potentiator Vmax (ΔF508-CFTR [2]; [6]): inactive |
| COc1ccc(C(=O)NCCNc2nc3c(C)cccc3cc2C#N)cc1OC [Compound 01] |  |  |  | corrector and potentiator activities comparable to those of Compound 22 |  |
| COc1ccc(C(=O)NCCNc2nc3ccc(C)cc3cc2C#N)cc1OC [Compound 02] |  |  |  | corrector and potentiator activities comparable to those of Compound 22 |  |
| Cc1cc(C)c2cc(C#N)c(NCCNC(=O)c3cccs3)nc2c1 [Compound 03] |  |  |  | dual activities |  |
| COc1ccc(S(=O)(=O)N2CCN(c3nc4ccc(C)cc4cc3C#N)CC2)cc1 [Compound 05] |  |  |  | dual activities |  |
| CCOc1ccccc1NC(=S)NCCNc1nc2c(C)cccc2cc1C#N [Compound 14] |  |  |  | potentiator-only activity |  |
| COc1ccc(C(=O)NCCNc2nc3cc(C)cc(C)c3cc2C#N)cc1OC [Compound 103] |  |  |  | both corrector and potentiator activities |  |
| COc1ccc(C(=O)NCCNc2nc3cc(C)cc(C)c3cc2C#N)nc1 [Compound 110] |  |  |  | both corrector and potentiator activities |  |

| SMILES | Corrector Vmax (ΔF508-CFTR [1]; [3]) | EC50 (ΔF508-CFTR [2]; [4]) | Potentiator Vmax (ΔF508-CFTR [2]; [4]) | corrector and potentiator activities, in words (ΔF508-CFTR [1]) | further results |
| --- | --- | --- | --- | --- | --- |
| COc1ccccc1C(=O)N1CCN(c2nc3cc(C)cc(C)c3cc2C#N)CC1 [Compound AW1] |  |  |  | potentiator-only activity | potentiator activity, in words (ΔF508-CFTR [2]): significant potentiator activity |
| COc1cccc(C(=O)N2CCN(c3nc4cc(C)cc(C)c4cc3C#N)CC2)c1 [Compound AW2] |  |  |  |  | potentiator activity, in words (ΔF508-CFTR [2]): significant potentiator activity |
| COc1ccc(C(=O)N2CCN(c3nc4cc(C)cc(C)c4cc3C#N)CC2)cc1 [Compound AW3] |  |  |  | potentiator-only activity | potentiator activity, in words (ΔF508-CFTR [2]): significant potentiator activity |
| COc1cccc(C(=O)NCCCNc2nc3cc(C)cc(C)c3cc2C#N)c1 [Compound AW8] |  |  |  |  | corrector activity, comparison in words (ΔF508-CFTR [1]): greater corrector activity than Compound AW7 |
| COc1ccc(C(=O)NCCCNc2nc3cc(C)cc(C)c3cc2C#N)cc1 [Compound AW9] |  |  |  |  | corrector activity, comparison in words (ΔF508-CFTR [1]): greater corrector activity than Compound AW7 |
| Cc1cc(C)c2cc(C#N)c(NCCNC(=O)c3cccnc3)nc2c1 [Compound CP5] |  |  |  | both corrector and potentiator activities |  |
| COc1ccc(C(=O)NCCNc2nc3c(C)cccc3cc2C#N)cc1OC [drawing 137] | 223 µM/s | 15 µM | 250 µM/s |  | EC50 (ΔF508-CFTR [1]; [3]): 3.8 µM |
| COc1ccc(C(=O)NCCNc2nc3ccc(C)cc3cc2C#N)cc1OC [drawing 138] | 281 µM/s | 15 µM | 297 µM/s |  | EC50 (ΔF508-CFTR [1]; [3]): 3.9 µM |
| Cc1cc(C)c2cc(C#N)c(NCCNC(=O)c3cccs3)nc2c1 [drawing 139] | 228 µM/s | 14 µM | 289 µM/s |  | EC50 (ΔF508-CFTR [1]; [3]): 14 µM |
| COc1ccc(S(=O)(=O)N2CCN(c3nc4ccc(C)cc4cc3C#N)CC2)cc1 [drawing 140] | 102 µM/s | 3.8 µM | 72 µM/s |  | EC50 (ΔF508-CFTR [1]; [3]): 5 µM |
| CCOc1ccccc1NC(=S)NCCNc1nc2c(C)cccc2cc1C#N [drawing 144] | inactive | 6 µM | 275 µM/s |  | Corrector EC50 (ΔF508-CFTR [1]; [3]): inactive |
| COc1cccc(C(=O)NCCNc2nc3cc(C)cc(C)c3cc2C#N)c1 [drawing 146] | 300 µM/s |  | 306 µM/s |  |  |
| COc1ccccc1C(=O)NCCNc1nc2cc(C)cc(C)c2cc1C#N [drawing 147] | 114 µM/s | 2.3 µM | 154 µM/s |  |  |
| Cc1cc(C)c2cc(C#N)c(N3CCN(C(=O)c4cccnc4)CC3)nc2c1 [drawing 156] |  |  | inactive |  | Potentiator EC50 (ΔF508-CFTR [2]; [4]): inactive |
| Cc1cc(C)c2cc(C#N)c(NCCCNC(=O)c3ccccn3)nc2c1 [drawing 161] |  | 6.1 µM | 233 µM/s |  |  |
| Cc1cc(C)c2cc(C#N)c(NCCCNC(=O)c3ccncc3)nc2c1 [drawing 163] | inactive |  |  |  | Corrector EC50 (ΔF508-CFTR [1]; [3]): inactive |
